Measurements: article PMC7654703 (ACS chemical biology, 2020)

What was measured:
TNFα-TNFR1 interaction = TNFα-TNFR1 interaction (Homo sapiens, UniProt P01375); experiment: TNFα-TNFR1 competition ELISA; assay type: binding; conditions: 100 μM SPD304 alone
[1] = tested on: TNFα-mediated death of WEHI-13VAR cells; experiment: WEHI-13VAR cell viability assay; assay type: cell-based, mouse; conditions: pre-incubation of TNFα with 20 μM SPD304 alone; final 20 nM after dilution
[2] = optical sensor assay; cited from earlier work
[3] = biological target: bicyclic 19-mer peptide (synthetic construct); conditions: cited from earlier work
TNFα trimer = TNFα trimer (Homo sapiens, UniProt P01375); experiment: TNFα oligomerization state by SEC; assay type: biochemical; conditions: 1 μM TNFα, additive without peptide (0.05% TWEEN20, one hour RT; 10 μM SPD304)
Sequence of TNFα trimer (P01375 77-233 limits assumed): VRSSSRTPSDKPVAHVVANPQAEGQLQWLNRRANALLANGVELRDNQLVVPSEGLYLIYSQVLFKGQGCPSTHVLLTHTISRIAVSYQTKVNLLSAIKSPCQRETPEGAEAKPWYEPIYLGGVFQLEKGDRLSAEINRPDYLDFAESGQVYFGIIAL

Sequence of TNFα-TNFR1 interaction (P01375 77-233 limits assumed): as above
Sequence of TNFα (P01375 77-233): as the sequence (P01375 77-233 limits assumed) above

For `Cc1cc2occ(CN(C)CCN(C)Cc3cn(-c4cccc(C(F)(F)F)c4)c4ccccc34)c(=O)c2cc1C` [SPD304], the “TNFα binding to TNFR1 blocked” value (TNFα-TNFR1 interaction) is given as ~ 30%, the “block of TNFα-mediated cell death by additive alone” value [1] is given as “did not substantially block” and the “critical aggregation concentration (CAC)” value [2] is given as 10 µM.
For TNFα (from UniProt P01375), the Kd [3] is given as 5 nM.
For TWEEN20, the “effect of additive alone on TNFα trimer by SEC” value (TNFα trimer) was “did not change”.
